Test results from article PMC4956231, “Molecular Mechanisms for Drug Hypersensitivity Induced by the Malaria Parasite’s Chloroquine Resistance Transporter” (PLoS Pathogens, 2016).
“And” between values parts separate entries of the source, which are not always exact repeats. Identical values can stand only once.

Experiments:
76I,369F-PfCRT^K1 = 76I,369F-PfCRT^K1 (Plasmodium falciparum, UniProt Q9N623, A220S/K76I/M74I/N326S/N75E/Q271E/R371I/V369F); assay: [3H]drug transport into Xenopus oocytes expressing PfCRT; format: cell-based
Experimental: (§1) For each treatment, 10 oocytes were transferred to a 5 mL polystyrene round bottom tube (Falcon) and washed twice with 3.5 mL of ND96 buffer, with the residual buffer removed by pipette. […] The assay was terminated by removing the reaction buffer with a pipette and washing the oocytes twice with 3.5 mL of ice-cold ND96 buffer. Each oocyte was transferred to a separate well of a white 96-well plate (NUNC or PerkinElmer), incubated overnight at room temperature in 30 μL of 10% SDS, and mixed on an orbital shaker the following day for approximately 5 min. The lysed oocyte was then combined with 150 μL of MicroScint-40 microscintillant (PerkinElmer), the plate covered with a TopSeal-A (PerkinElmer), and the radioactivity measured with a PerkinElmer MicroBeta^2 microplate liquid scintillation analyzer.

76I-PfCRT^K1 = 76I-PfCRT^K1 (Plasmodium falciparum, UniProt Q9N623, A220S/K76I/M74I/N326S/N75E/Q271E/R371I); format: cell-based
Experimental: as §1

C4^Dd2 (PfCRT^Dd2) = assay: P. falciparum H+ efflux assay (DV alkalinization rate); format: cell-based, Plasmodium falciparum
Experimental: (§2) Saponin-isolated trophozoite-stage parasites containing the membrane-impermeant pH-sensitive fluorescent indicator fluorescein-dextran (10,000 MW; Life Technologies) in their DVs were prepared as outlined elsewhere. The isolated parasites were washed and suspended in a saline solution (125 mM NaCl, 5 mM KCl, 1 mM MgCl2, 20 mM glucose, 25 mM HEPES; pH 7.1) at a density of 1–3 × 10^7 cells/mL. The fluorometry experiments were performed as described previously. The pH of the DV was monitored at 37°C using a PerkinElmer Life Sciences LS50B fluorometer with a dual excitation Fast Filter accessory (excitation 490 and 450 nm; emission 520 nm). The experiments entailed monitoring the alkalinization of the DV upon addition of the V-type H^+-ATPase inhibitor concanamycin A (100 nM; Sigma-Aldrich), in the presence or absence of the drugs of interest. Half-times for DV alkalinization (t1/2) were calculated as outlined elsewhere. In all cases, five independent experiments were performed on different days.

C6^7G8 (PfCRT^7G8) = assay: as above; format: cell-based, Plasmodium falciparum
Experimental: as §2

C2^GC03 (PfCRT^3D7) = assay: as above; format: cell-based, Plasmodium falciparum
Experimental: as §2

3D7 = assay: P. falciparum drug susceptibility (parasite proliferation, SYBR Safe); format: cell-based; conditions: Plasmodium falciparum, Control, 72 h
Experimental: (§3) Parasite proliferation was measured in 96-well plates using a fluorescent DNA-intercalating dye and a protocol described in detail previously. Briefly, cell suspensions containing erythrocytes infected with ring-stage parasites (hematocrit and parasitemia of approximately 2% and 1%, respectively) were incubated at 37°C for 72 h. The samples were frozen, thawed, and then processed by the addition of 100 μL (per well) of SYBR Safe DNA Gel Stain (Molecular Probes; 0.2 μL/mL) in a lysis buffer (20 mM Tris, 5 mM EDTA, 0.008% w/v saponin, and 0.08% v/v Triton X-100; pH 7.5). The fluorescence emanating from each well was measured immediately using a Tecan Infinite M1000 PRO microplate reader (excitation 490 nm; emission 520 nm) and the average fluorescence from wells containing the highest concentration of the drug was subtracted from the resulting values. The level of parasite proliferation in the presence of each drug concentration was expressed as a percentage of the proliferation measured in the absence of the drug for which the IC50 was being determined. The IC50s were determined in SigmaPlot by a least-squares fit of the equation y = a/ [1 ([drug]/IC50)c] to the data, where y is the percent parasite proliferation, a is the maximum change in the percent parasite proliferation, and c is a fitted constant. In all cases, five independent experiments were performed (on different days), and within each experiment measurements were averaged from three replicates.

C2^GC03 = assay: as above; format: cell-based; conditions: Plasmodium falciparum, Control, 72 h
Experimental: as §3

Dd2 = assay: as above; format: cell-based; conditions: Plasmodium falciparum, DD2, 72 h
Experimental: as §3

C4^Dd2 = assay: as above; format: cell-based; conditions: Plasmodium falciparum, Control, 72 h
Experimental: as §3

C6^7G8 = assay: as above; format: cell-based; conditions: Plasmodium falciparum, Control, 72 h
Experimental: as §3

noninjected oocytes = assay: [3H]drug uptake into noninjected oocytes (background accumulation); format: cell-based, Xenopus laevis; conditions: for rate of CQ uptake: [3H]CQ […]
Experimental: as §1

PfCRT^K1 [1] = assay: [3H]drug transport into Xenopus oocytes expressing PfCRT; format: cell-based, Plasmodium falciparum
Experimental: as §1

76K-PfCRT^K1 = assay: Trans-stimulation of [3H]CQ uptake by microinjected compound in oocytes; format: cell-based, Plasmodium falciparum; conditions: oocytes expressing 76K-PfCRT^K1, microinjected amantadine
Experimental: (§4) A subset of experiments measured the ability of unlabeled amantadine to trans-stimulate the uptake of [^3H]CQ into the oocyte. Immediately prior to the commencement of the experiment, the oocytes (days 3–4 post-injection of the cRNA) were microinjected with either amantadine (estimated intracellular concentrations of 1, 2.5, 5, 10, 15, or 20 mM) or a control treatment (buffer, spermine, or histidine; the estimated intracellular concentrations of spermine and histidine were 5 and 10 mM). The volume injected was 50 nL and the intracellular concentrations were calculated using previous estimates of the volume of stage V-VI oocytes (~400 nL [77]). The resealed oocytes were then incubated at 16–18°C in OR^2+ buffer for approximately 5 min and the influx of [^3H]CQ was measured as described above. […] The Michaelis-Menten equation was then fitted to the data to derive the kinetic parameters for the trans-stimulation of [^3H]CQ transport by amantadine.

PfCRT^Dd2 = assay: as above; format: cell-based, Plasmodium falciparum; conditions: oocytes expressing PfCRT^Dd2 microinjected with unlabeled amantadine
Experimental: as §4

PfCRT^K1 [2] = assay: as above; format: cell-based, Plasmodium falciparum
Experimental: as §4

PfCRT^3D7 = assay: as above; format: cell-based, Plasmodium falciparum; conditions: oocytes expressing PfCRT^3D7, microinjected amantadine
Experimental: as §4

Sequence of 76I-PfCRT^K1 (Q9N623 whole entry A220S/K76I/M74I/N326S/N75E/Q271E/R371I): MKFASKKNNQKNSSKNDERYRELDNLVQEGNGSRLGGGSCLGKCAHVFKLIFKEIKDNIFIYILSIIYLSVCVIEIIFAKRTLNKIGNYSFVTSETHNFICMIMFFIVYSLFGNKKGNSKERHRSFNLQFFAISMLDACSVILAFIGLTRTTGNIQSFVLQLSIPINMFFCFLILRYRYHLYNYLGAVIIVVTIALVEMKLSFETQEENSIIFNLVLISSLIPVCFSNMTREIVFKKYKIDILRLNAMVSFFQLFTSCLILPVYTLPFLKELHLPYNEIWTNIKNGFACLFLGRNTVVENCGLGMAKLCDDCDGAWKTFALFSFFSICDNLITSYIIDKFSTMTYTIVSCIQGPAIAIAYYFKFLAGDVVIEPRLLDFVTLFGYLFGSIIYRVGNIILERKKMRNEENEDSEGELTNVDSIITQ
Sequence of 76I,369F-PfCRT^K1 (Q9N623 whole entry A220S/K76I/M74I/N326S/N75E/Q271E/R371I/V369F): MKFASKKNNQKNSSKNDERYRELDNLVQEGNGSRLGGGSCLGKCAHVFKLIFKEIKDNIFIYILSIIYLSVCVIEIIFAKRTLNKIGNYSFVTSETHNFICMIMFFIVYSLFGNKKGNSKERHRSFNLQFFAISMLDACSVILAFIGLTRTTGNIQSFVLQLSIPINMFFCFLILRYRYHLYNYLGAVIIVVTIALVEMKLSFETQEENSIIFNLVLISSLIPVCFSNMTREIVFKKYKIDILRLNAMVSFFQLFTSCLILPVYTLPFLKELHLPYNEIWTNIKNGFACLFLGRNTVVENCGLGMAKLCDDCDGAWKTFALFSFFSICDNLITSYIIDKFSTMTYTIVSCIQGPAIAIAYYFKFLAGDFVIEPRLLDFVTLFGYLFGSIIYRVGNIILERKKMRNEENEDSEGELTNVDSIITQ

`CCN(CC)CCCC(C)Nc1ccnc2cc(Cl)ccc12` (stereo not drawn) [CQ, chloroquine] was tested, and the “Apparent Vmax” value (76I,369F-PfCRT^K1; transport via 76I,369F-PfCRT^K1 in oocytes, CQ pH 6.0) was 13.8 pmol per oocyte/h and 13.8 ± 1.3^c (5) pmol per oocyte/h, the “Apparent Vmax” value (76I-PfCRT^K1; transport via 76I-PfCRT^K1 in oocytes, CQ pH 6.0, quinine and quinidine pH 5.0) was 29.3 pmol per oocyte/h and 29.3 ± 7.2^c,f (5) pmol per oocyte/h and the “effect on rate of DV alkalinization” value (C4^Dd2 (PfCRT^Dd2); C4^Dd2 (CQ-resistant), CQ […], concanamycin A 100 nM) was “increased”. The “effect on rate of DV alkalinization” value (C6^7G8 (PfCRT^7G8); C6^7G8 (CQ-resistant), CQ […], concanamycin A 100 nM) was “increased”, the “effect on rate of DV alkalinization” value (C2^GC03 (PfCRT^3D7); C2^GC03 (CQ-sensitive), CQ […], concanamycin A 100 nM) was “without effect” and the IC50 (3D7) was 0.025 ± 0.0011 µM. It also gave an IC50 (C2^GC03) of 0.027 ± 0.0016 µM, an IC50 (Dd2) of 0.151 ± 0.0048 µM and an IC50 (C4^Dd2) of 0.149 ± 0.0046 µM. For the same compound, the IC50 (C6^7G8) was 0.087 ± 0.0021 µM, the “rate of CQ uptake” value (noninjected oocytes; pH 5.5, 15 μM unlabeled CQ (S5 Fig)) was 1.41 ± 0.02 pmol per oocyte/h and the “rate of CQ uptake” value (noninjected oocytes; pH 6.0, 15 μM unlabeled CQ (Fig 2A)) was 0.98 ± 0.13 pmol per oocyte/h. For the same compound, the “rate of CQ uptake” value (PfCRT^K1 [1]; oocytes expressing PfCRT^K1, [3H]CQ […], pH 6.0, 15 μM unlabeled CQ (Fig 2A)) was 6.75 ± 0.94 pmol per oocyte/h, the “Apparent Vmax” value (PfCRT^K1 [1]; transport via PfCRT^K1 in oocytes, CQ pH 6.0, quinine and quinidine pH 5.0) was 72 ± 3 (9) pmol per oocyte/h and the Km (PfCRT^K1 [1]; transport via PfCRT^K1 in oocytes, CQ pH 6.0, quinine and quinidine pH 5.0, 76K-PfCRT^K1 control subtracted, read-out: Apparent Km) was 282 ± 5 µM.
`NC12CC3CC(CC(C3)C1)C2` [amantadine] was tested, and the amantadine transport activity (76I,369F-PfCRT^K1; oocytes expressing 76I,369F-PfCRT^K1, pH 5.0, 50 μM unlabeled amantadine) was “very low (but statistically significant) level”, the “[3H]amantadine accumulation relative to noninjected oocytes” value (76I-PfCRT^K1; oocytes expressing 76I-PfCRT^K1, pH 5.0, 50 μM unlabeled amantadine) was “marked increase” and the “substrate of PfCRT in situ (rate of DV alkalinization)” value (“substrate of PfCRT in situ” below) (C4^Dd2 (PfCRT^Dd2); C4^Dd2, PfCRT^Dd2, amantadine 10 μM) was “is a substrate”. The “substrate of PfCRT in situ” value (C6^7G8 (PfCRT^7G8); C6^7G8, PfCRT^7G8, amantadine 10 μM) was “is a substrate”, the “substrate of PfCRT in situ” value (C2^GC03 (PfCRT^3D7); C2^GC03, wild-type PfCRT (PfCRT^3D7), amantadine 10 μM) was “not of wild-type PfCRT” and the “effect on accumulation of [3H]CQ (trans-stimulation)” value (76K-PfCRT^K1) was “did not affect”. For the same compound, the “increase in the rate of CQ influx (trans-stimulation)” value (PfCRT^Dd2) was 6.7 ± 0.3 pmol per oocyte/h, the “Hill coefficient (trans-stimulation of [3H]CQ uptake)” value (PfCRT^K1 [2]; PfCRT^K1) was 1.63 ± 0.12 and the “increase in the rate of CQ influx (trans-stimulation)” value (PfCRT^K1 [2]; oocytes expressing PfCRT^K1 microinjected with unlabeled amantadine) was 6.4 ± 0.2 pmol per oocyte/h. The “effect on accumulation of [3H]CQ (trans-stimulation)” value (PfCRT^3D7) was “did not affect”, the IC50 (3D7) was 344 ± 8.9 µM and the IC50 (C2^GC03) was 335 ± 9.5 µM. The IC50 (Dd2) was 11 ± 0.1 µM, the IC50 (C4^Dd2) was 8.4 ± 0.06 µM and the IC50 (C6^7G8) was 43 ± 2.9 µM. For the same compound, the “rate of amantadine uptake” value (noninjected oocytes; [3H]amantadine 0.146 μM, pH 5.0, 50 μM unlabeled amantadine) was 5.4 ± 0.9 nmol per oocyte/h, the “rate of amantadine uptake” value (PfCRT^K1 [1]; PfCRT^K1-expressing oocytes, [3H]amantadine 0.146 μM, pH 5.0, 50 μM unlabeled amantadine) was 12 ± 2.8 nmol per oocyte/h and the “[3H]amantadine accumulation relative to noninjected oocytes” value (PfCRT^K1 [1]; oocytes expressing PfCRT^K1, pH 5.0, 50 μM unlabeled amantadine) was “marked increase”.
